Laboratory results reported in ChEMBL document CHEMBL1152159, “Possible involvement of radical intermediates in the inhibition of cysteine proteases by allenyl esters and amides” (Bioorg Med Chem Lett, 2008).

Legend:
[1] = biological target: Cathepsin B (Homo sapiens, UniProt P07858); experiment: Inhibition of cathepsin B in oxygen free condition
[2] = Inhibition of urease
[3] = tested on: Rattus norvegicus; experiment: Inhibition of water-immersion stress-induced ulcer formation in rat at 3 mg/kg; format: functional
[4] = tested on: Rattus norvegicus; experiment: Inhibition of water-immersion stress-induced ulcer formation in rat at 1 mg/kg; format: functional
[5] = tested on: Rattus norvegicus; experiment: Inhibition of water-immersion stress-induced ulcer formation in rat at 10 mg/kg; format: functional
[6] = tested on: Rattus norvegicus; experiment: Inhibition of water-immersion stress-induced ulcer formation in rat at 30 mg/kg; conditions: read-out: INH
[7] = Dissociation constant, pKa of the compound; format: physicochemical

Compound CCOC(=O)C(C)=C=C(c1ccccc1)c1ccccc1 has an IC50 [1] of 232 µM, an IC50 [2] of 1.1 µM and an inhibition in vivo at 3 mg/kg [3] of 52%. It also gave an inhibition in vivo at 1 mg/kg [4] of 40% and an inhibition in vivo at 10 mg/kg [5] of 87%.
With CN/C(=N\CCSCc1nc[nH]c1C)NC#N [CIMETIDINE] the inhibition in vivo at 30 mg/kg [6] was 74%.
For NC(N)=Nc1nc(CSCC/C(N)=N/S(N)(=O)=O)cs1 [FAMOTIDINE], the inhibition in vivo at 3 mg/kg [3] was 59%.
Work on N[C@@H](CCC(=O)N[C@@H](CS)C(=O)NCC(=O)O)C(=O)O [GLUTATHIONE] yielded a pKa [7] of 8.7.
